# Measurements from patent publication US20190376971A1, “Compositions and Methods for the Assessment of Drug Target Occupancy for Bruton's Tyrosine Kinase” (Acerta Pharma B.V., priority 2017, published 2019).
# Molecular target: T1, BTK (Canis lupus familiaris, UniProt A0A8I3P3Z9)
# T1 construct: PBMCs are isolated from the blood of dogs by Ficoll Paque procedure; from tissue; host or cells: CD21+ B cells purified from PBMCs of dog blood (dogs with spontaneous lymphoma, dosed orally)
# Assay: BTK target occupancy in canine peripheral CD21+ B cells after oral dosing
# Assay type: in vivo, dog
# Details: day 7 prior to repeat dose, 1 day after preceding dose; 2.5 mg/kg once daily, peroral
# Method: The following method may be used for the ELISA BTK target occupancy assay. Other variations of this assay are known to those of skill in the art and may also be used. • 1. Coat a 96-well plate (Optiplate, Perkin Elmer, catalog no. 6005290) with 125 ng/well anti-BTK (BD Biosciences catalog no. 611117) in 100 μL PBS, overnight at 4° C. • 2. Wash 2×200 μL/well PBS-Tween 0.05% (PBST). • 3. Block with 245 μL/well PBST+3% bovine serum albumin (BSA), for 2 to 3 hours at room temperature while shaking. • 4. During blocking, incubate samples with acalabrutinib and probe in Eppendorf tubes: • a. Centrifuge cells 5 minutes at 5000 rpm and 4° C. in Eppendorf centrifuge. • b. Remove supernatant, dilute BTK protein or resuspend cell pellet in cold (2-8° C.) lysis buffer (see below). For amount of cells/μL, see detailed protocols for Ramos (Example 6.2), canine B cells (Example 7.2) and human PBMCs (Example 8.2). • c. Incubate on ice for 30 minutes while shaking. Vortex every 10 minutes. • d. Centrifuge for 10 minutes at 14000 rpm and 4° C. in Eppendorf centrifuge. • e. Transfer supernatant to new tube. • f. […] Wash wells 2×245 μL/well PBST. • 6. Add (in duplicate) 100 μL of each sample (with and without Formula (3)) to the wells. • 7. Incubate for 2 hours at room temperature while shaking. • 8. Wash 4×PBST, 200 μL/well. • 9. […]
# T1 sequence (A0A8I3P3Z9 1-664): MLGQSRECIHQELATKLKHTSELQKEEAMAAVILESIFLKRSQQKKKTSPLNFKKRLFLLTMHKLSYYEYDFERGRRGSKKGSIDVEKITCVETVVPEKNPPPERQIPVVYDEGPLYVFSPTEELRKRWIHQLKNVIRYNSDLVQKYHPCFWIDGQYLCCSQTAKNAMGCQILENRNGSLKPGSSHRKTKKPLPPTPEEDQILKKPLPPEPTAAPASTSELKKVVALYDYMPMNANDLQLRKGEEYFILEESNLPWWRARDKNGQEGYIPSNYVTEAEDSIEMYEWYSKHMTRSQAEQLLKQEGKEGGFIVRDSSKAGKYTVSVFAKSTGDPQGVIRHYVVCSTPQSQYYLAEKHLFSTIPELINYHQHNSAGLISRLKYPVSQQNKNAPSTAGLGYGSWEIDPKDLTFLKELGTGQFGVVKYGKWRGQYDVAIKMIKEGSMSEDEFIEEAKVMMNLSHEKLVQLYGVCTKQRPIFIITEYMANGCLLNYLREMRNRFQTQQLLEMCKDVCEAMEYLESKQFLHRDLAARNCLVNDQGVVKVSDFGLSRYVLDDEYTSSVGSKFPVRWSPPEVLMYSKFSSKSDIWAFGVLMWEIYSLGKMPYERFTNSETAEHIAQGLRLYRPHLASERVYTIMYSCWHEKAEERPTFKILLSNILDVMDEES
smiles,measurement,value
CC#CC(=O)N1CCC[C@H]1c1nc(-c2ccc(C(=O)Nc3ccccn3)cc2)c2c(N)nccn12 [acalabrutinib],"BTK still occupied, percentage of the predose sample",83%
